{"source": "ChEMBL document CHEMBL4011620", "about": "“Design and Discovery of N-(2-Methyl-5'-morpholino-6'-((tetrahydro-2H-pyran-4-yl)oxy)-[3,3'-bipyridin]-5-yl)-3-(trifluoromethyl)benzamide (RAF709): A Potent, Selective, and Efficacious RAF Inhibitor Targeting RAS Mutant Cancers” (J Med Chem, 2017)", "key": {"Calu-6": {"tested_on": "Calu-6", "experiment": "Antiproliferative activity against human Calu6 cells harboring KRAS Q61K mutant assessed as reduction cell viability after 72 hrs by CellTiter-Glo assay", "type": "functional, cell-based", "details": "Calu-6, 72 h"}, "[1]": {"experiment": "Apparent permeability across apical to basolateral side in human Caco2 cells at pH 7.4 by LC/MS/MS analysis", "details": "Caco-2, pH 7.4"}, "[2]": {"experiment": "Solubility of compound at pH 6.8 by shake-flask assay", "details": "buffer"}, "[3]": {"molecular_target": "T1, Discoidin domain-containing receptor 2 (Homo sapiens) (UniProt Q16832)", "T1 sequence (whole entry)": "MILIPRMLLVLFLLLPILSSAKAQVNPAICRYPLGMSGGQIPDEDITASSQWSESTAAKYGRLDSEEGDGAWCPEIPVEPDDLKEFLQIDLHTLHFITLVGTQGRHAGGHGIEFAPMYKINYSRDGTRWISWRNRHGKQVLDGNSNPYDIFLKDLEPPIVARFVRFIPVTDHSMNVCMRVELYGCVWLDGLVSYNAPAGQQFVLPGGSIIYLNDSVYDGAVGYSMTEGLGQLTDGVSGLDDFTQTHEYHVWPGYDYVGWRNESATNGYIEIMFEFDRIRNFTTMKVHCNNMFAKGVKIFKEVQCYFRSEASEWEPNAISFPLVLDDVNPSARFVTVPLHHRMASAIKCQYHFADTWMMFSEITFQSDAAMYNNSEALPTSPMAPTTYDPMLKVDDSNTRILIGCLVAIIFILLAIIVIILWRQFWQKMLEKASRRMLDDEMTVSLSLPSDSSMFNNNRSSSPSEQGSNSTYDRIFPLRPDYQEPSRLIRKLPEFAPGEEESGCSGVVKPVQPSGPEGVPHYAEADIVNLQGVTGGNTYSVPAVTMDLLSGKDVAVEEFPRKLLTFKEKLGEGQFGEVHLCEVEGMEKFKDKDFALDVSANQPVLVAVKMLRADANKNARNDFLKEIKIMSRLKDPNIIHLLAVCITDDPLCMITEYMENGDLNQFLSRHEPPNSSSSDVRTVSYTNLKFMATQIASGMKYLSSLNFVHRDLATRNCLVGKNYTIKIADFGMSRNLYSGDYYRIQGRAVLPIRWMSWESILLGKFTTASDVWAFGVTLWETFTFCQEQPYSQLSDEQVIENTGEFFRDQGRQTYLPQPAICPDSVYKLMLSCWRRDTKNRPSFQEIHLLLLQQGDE", "experiment": "Binding affinity to human DDR2 (555 to 855 residues) expressed in mammalian expression system at 1 uM by kinome scan assay relative to control"}, "[4]": {"experiment": "Cmax in mouse at 3 mg/kg, po", "type": "ADME, organism-based", "parameters": "dose 3 mg/kg, route oral", "details": "in vivo"}, "[5]": {"experiment": "Oral bioavailability in mouse at 3 mg/kg", "type": "ADME, organism-based", "details": "in vivo"}, "[6]": {"experiment": "Protein binding in mouse plasma", "type": "ADME, cell-free", "details": "read-out: PPB (converted)"}, "Mus musculus": {"tested_on": "Mus musculus", "experiment": "In vivo inhibition of ERK phosphorylation at Thr202/Tyr204 and Thr185/Tyr187 in po dosed mouse xenografted with human Calu6 cells administered as single dose measured after 1 to 24 hrs post dose", "type": "functional, organism-based"}, "Plasma": {"tested_on": "Plasma", "experiment": "Plasma concentration in po dosed mouse xenografted with human Calu6 cells administered as single dose measured after 1 to 24 hrs post dose by LC-MS analysis", "type": "ADME, organism-based", "details": "in vivo"}}, "note": "pEC50: −log10 of the molar value."}
{"smiles": "Cc1ncc(NC(=O)c2cccc(C(F)(F)F)c2)cc1-c1cnc(OC2CCOCC2)c(N2CCOCC2)c1", "values": [{"measurement": "pEC50", "setting": "Calu-6", "value": 6.02}, {"measurement": "Papp A→B", "setting": "[1]", "value": 15, "unit": "×10⁻⁶ cm/s"}, {"measurement": "solubility thermodynamic", "setting": "[2]", "value": 200, "unit": "µM"}, {"measurement": "Activity", "setting": "[3]", "value": 86, "unit": "%"}, {"measurement": "Cmax", "setting": "[4]", "value": 1000, "unit": "nM"}, {"measurement": "bioavailability", "setting": "[5]", "value": 68, "unit": "%"}, {"measurement": "fraction unbound", "setting": "[6]", "value": 0.02}, {"measurement": "inhibition", "setting": "Mus musculus", "value": "Dose-dependent effect"}, {"measurement": "Drug uptake", "setting": "Plasma", "value": "Dose-dependent effect"}]}
